Measured values: patent US20140148368A1, “DRILLING FLUIDS AND DRILLING FLUID ADDITIVES FOR TREATMENT OF BITUMEN IN WELLBORE CUTTINGS” (Marquis Alliance Energy Group Inc., priority 2012, published 2014)

Assay: Test Program #1: solubility of dodecanedioic acid powder in bitumen wafer
Type: physicochemical
Conditions: ambient temperature, 3 days
From the text: The solubility of dodecanedioic acid powder in bitumen was proven in laboratory experiments in which a 30-gram bitumen core sample was compressed at 1,000 pounds per square inch using a compactor, to make bitumen wafers having a diameter of 2.75 cm and a depth (thickness) of 1.8 cm. The bitumen wafer was rolled over carefully in a container with a sufficient quantity of dodecanedioic acid powder. The surface of bitumen wafer was covered with a thin layer of the dodecanedioic acid powder, and the color of the bitumen turned from black to white.

O=C(O)CCCCCCCCCCC(=O)O [dodecanedioic acid]
solubility of powder in bitumen (visual inspection of powder-covered wafer): all of the white dodecanedioic acid powder had disappeared
